Data: paper PMC6957262 (Bioorganic & medicinal chemistry letters, 2015)

target: T1, hTRPV1 (Homo sapiens, UniProt Q8NER1); assay: hTRPV1 antagonism of capsaicin; assay type: cell-based; details: improvement over parent 1
T1 sequence (Q8NER1 whole entry): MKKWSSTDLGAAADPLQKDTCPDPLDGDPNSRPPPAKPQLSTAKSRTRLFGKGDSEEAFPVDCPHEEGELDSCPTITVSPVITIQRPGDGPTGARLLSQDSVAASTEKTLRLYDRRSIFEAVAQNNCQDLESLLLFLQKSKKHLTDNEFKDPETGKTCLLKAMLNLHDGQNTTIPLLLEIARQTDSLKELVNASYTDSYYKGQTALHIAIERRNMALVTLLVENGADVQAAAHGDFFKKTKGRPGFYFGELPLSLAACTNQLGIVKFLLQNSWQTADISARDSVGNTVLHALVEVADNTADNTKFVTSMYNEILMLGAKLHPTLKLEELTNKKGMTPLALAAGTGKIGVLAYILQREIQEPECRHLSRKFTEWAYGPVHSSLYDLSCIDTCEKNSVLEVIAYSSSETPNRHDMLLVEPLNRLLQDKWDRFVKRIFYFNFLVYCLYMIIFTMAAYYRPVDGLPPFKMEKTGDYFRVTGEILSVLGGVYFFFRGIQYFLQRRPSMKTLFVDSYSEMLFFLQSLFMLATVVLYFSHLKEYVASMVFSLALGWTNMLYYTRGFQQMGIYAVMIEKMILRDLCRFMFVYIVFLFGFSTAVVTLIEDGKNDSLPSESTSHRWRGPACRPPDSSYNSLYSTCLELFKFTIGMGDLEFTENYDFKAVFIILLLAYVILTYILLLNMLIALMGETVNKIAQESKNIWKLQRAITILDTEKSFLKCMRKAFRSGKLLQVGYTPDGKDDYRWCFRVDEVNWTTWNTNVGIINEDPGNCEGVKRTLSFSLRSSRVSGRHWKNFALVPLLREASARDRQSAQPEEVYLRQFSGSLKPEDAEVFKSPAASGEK

Row | Compound | fold more potent than parent 1 [fold]
1 | Cc1cccc(C(C(=O)NCc2ccc(C(F)(F)F)nc2N2CCC(C)CC2)c2ccc(NS(C)(=O)=O)c(F)c2)c1 (stereo not drawn) [Compound 34] | 3

same assay, conditions: less potent than parent

Row | fold loss in antagonistic potency compared to the corresponding parent (1 or 2) | Compound
2 | 5 fold | CCC(C(=O)NCc1ccc(C(F)(F)F)nc1N1CCC(C)CC1)c1ccc(NS(C)(=O)=O)c(F)c1 (stereo not drawn) [Compound 21]
3 | > 140 fold | Cc1ccccc1C(C(=O)NCc1ccc(C(F)(F)F)nc1N1CCC(C)CC1)c1ccc(NS(C)(=O)=O)c(F)c1 (stereo not drawn) [Compound 32]
4 | 3–8 fold | Cc1ccc(C(C(=O)NCc2ccc(C(F)(F)F)nc2N2CCC(C)CC2)c2ccc(NS(C)(=O)=O)c(F)c2)cc1 (stereo not drawn) [Compound 36]

Continued, compound first:

Row | Compound | fold loss in antagonistic potency compared to the corresponding parent (1 or 2)
5 | CC1CCN(c2nc(C(F)(F)F)ccc2CNC(=O)C(c2ccc(NS(C)(=O)=O)c(F)c2)C2CCCC2)CC1 (stereo not drawn) [Compound 22] | > 100 fold
6 | CS(=O)(=O)Nc1ccc(C(C(=O)NCc2ccc(C(F)(F)F)nc2SC2CCCCC2)C2CCCC2)cc1F (stereo not drawn) [Compound 23] | > 100 fold
7 | CC1CCN(c2nc(C(F)(F)F)ccc2CNC(=O)C(c2ccc(NS(C)(=O)=O)c(F)c2)C2CCCCC2)CC1 (stereo not drawn) [Compound 24] | > 100 fold
8 | CS(=O)(=O)Nc1ccc(C(C(=O)NCc2ccc(C(F)(F)F)nc2SC2CCCCC2)C2CCCCC2)cc1F (stereo not drawn) [Compound 25] | > 100 fold
9 | Cc1ccccc1C(C(=O)NCc1ccc(C(F)(F)F)nc1SC1CCCCC1)c1ccc(NS(C)(=O)=O)c(F)c1 (stereo not drawn) [Compound 33] | > 140 fold
10 | Cc1cccc(C(C(=O)NCc2ccc(C(F)(F)F)nc2SC2CCCCC2)c2ccc(NS(C)(=O)=O)c(F)c2)c1 (stereo not drawn) [Compound 35] | 60 fold
11 | Cc1ccc(C(C(=O)NCc2ccc(C(F)(F)F)nc2SC2CCCCC2)c2ccc(NS(C)(=O)=O)c(F)c2)cc1 (stereo not drawn) [Compound 37] | 3–8 fold

target: T1, hTRPV1; assay: hTRPV1 antagonism of pH activation; assay type: cell-based; details: heat (45 °C), NADA

Row | Compound | fold weaker potency toward the other activators compared to 1
12 | Cc1cccc(C(C(=O)NCc2ccc(C(F)(F)F)nc2N2CCC(C)CC2)c2ccc(NS(C)(=O)=O)c(F)c2)c1 (stereo not drawn) [Compound 34] | 5–15 fold
